Data set [1] concerns Escherichia coli ATCC 8739. In words: Microdilution test, control bacterial strain Escherichia coli (growth abatement, OD600). It is filed as cell-based. As for the experimental part:
(§1) The test aims to assess the in vitro susceptibility of the yeast Kluyveromyces marxianus to the antibiotic rifaximin. The test is performed by assaying 8 scalar dilutions of rifaximin in liquid culture medium (microdilution). Bacterial strains are tested in parallel as controls. Rifaximin is a synthetic molecule derived from rifamycin. The powder is characterized by poor solubility in water and tendency to self-aggregate in the liquid phase. A preliminary step is then performed to set the solubility conditions of rifaximin at the highest concentration used in the test (0.5 mg/ml). The following strains were used • Kluyveromyces marxianus B099 • Bifidobacterium longum […] • Escherichia coli ATCC 8739 The Escherichia coli bacterial strain was revitalized from a reference stock suspension stored at -80° C. After thawing, working cultures were set up by growing the strain in suitable plate medium under the optimal growth conditions. The other strains were obtained after plating on agarized culture medium of the specific matrices and subsequent isolation of pure colonies. In Table 1 the strains and the growth and inoculation conditions are set forth. [table] In the microdilution test, broth-cultures of the test microorganisms are set up in triplicates in the presence of 8 different concentrations of rifaximin, which are selected in agreement with the client, and 1 concentration of rifamycin corresponding to the highest concentration selected for rifaximin. 100 μl of a solution, 2 times more concentrated (2×) than the desired concentration, and 100 μl of the microbial suspension at a titer given in Table 2.2.1, were added to each well of the 96-wells plates. The 8 concentrations of rifaximin are produced from the 50 mg/ml solution in DMSO in TSB and in parallel in SDB. The final test concentrations are as follows: 0.5 mg/ml-0.25 mg/ml-0.125 mg/ml-0.063 mg/ml-0.031 mg/ml-0.015 mg/ml-0.0078 mg/ml-0.0039 mg/ml. Following the absorbance measurement on the spectrophotometer, the mean of the data recorded for each concentration and the mean of the data from the controls in DMSO or sterile water are calculated. To estimate the microbial growth and determine MIC from the mean data obtained (in the test and controls), the blank data are subtracted and then the control data and the test data are compared with each other to assess any growth or growth inhibition of each strain tested. The growth inhibition is calculated as a percentage by the following formula: [formula] • wherein • A: Mean OD of control • B: Mean OD of the sample at the concentration tested • MIC is considered the lowest concentration of product that can give at least 90% growth inhibition. A solution of rifamycin is prepared, at the 50 mg/ml concentration in sterile water, which is then diluted in tryptic soy broth (TSB) and in parallel in Sabouraud dextrose broth (SDB) until the 0.5 mg/ml concentration used in the test is obtained. The plates are incubated at the optimal temperatures and growth conditions of the various strains tested as described in Example 5. After the days of incubation have passed, the absorbance at 600 nm (OD600) is measured by spectrophotometer. The mean values after subtracting the blank are used to estimate microbial growth and determine MIC.
For orientation: In broth dilution the organism is exposed to a series of concentrations in liquid medium.

Data set [2] in a line: Preliminary solubilization test in DMSO. The data set is classed as physicochemical. Conditions: starting stock solution. As for the experimental part: The test aims to assess the in vitro susceptibility of the yeast Kluyveromyces marxianus to the antibiotic rifaximin. The test is performed by assaying 8 scalar dilutions of rifaximin in liquid culture medium (microdilution). Bacterial strains are tested in parallel as controls. Rifaximin is a synthetic molecule derived from rifamycin. The powder is characterized by poor solubility in water and tendency to self-aggregate in the liquid phase. A preliminary step is then performed to set the solubility conditions of rifaximin at the highest concentration used in the test (0.5 mg/ml). The exploratory step is performed to set the solubilization conditions of rifaximin and the culture conditions of the microbial strains. Given the poor solubility of rifaximin powder in water and the tendency for self-aggregation in the liquid phase, a solubilization test in DMSO (dimethyl sulfoxide) is performed. […] The first concentration used in the test and the subsequent dilutions (set up in Tryptic soy broth-TSB or Sabouraud dextrose broth-SDB, base-2 serial dilutions) were defined in agreement with the client, based on literature data. The strains were expanded first in liquid medium and then in agarized medium, as described in Table 2.2.1, obtaining growth results that confirmed the use of these media and conditions for the microdilution test as well.

In data set [3] the test system is Bifidobacterium longum W11. The data set is described as follows: Microdilution test, control bacterial strain Bifidobacterium longum (growth abatement, OD600). The data set is classed as cell-based. The following applies: for Abatement of strain growth: Bifidobacterium longum W11. As for the experimental part:
as §1

Data set [4] relates to Kluyveromyces marxianus B099. In words: Microdilution test, susceptibility of Kluyveromyces marxianus to the antibiotic (growth abatement, OD600). The data set is classed as cell-based. As for the experimental part:
as §1

[5] abbreviates: rifamycin 0.5 mg/ml (stock in sterile water).

Structures are written as SMILES. A value given as a limit tells only on which side of the number the result lay.

With `CO[C@H]1/C=C/O[C@@]2(C)Oc3c(C)c(O)c4c(O)c(c5c(nc6cc(C)ccn65)c4c3C2=O)NC(=O)/C(C)=C\C=C\[C@H](C)[C@H](O)[C@@H](C)[C@@H](O)[C@@H](C)[C@H](OC(C)=O)[C@@H]1C` [rifaximin], the figures for the “Growth inhibition, conclusion in words” value in data set [1], in data set [3] (Bifidobacterium longum) and in data set [4] were “inhibits the growth”, “inhibits the growth” and “does not inhibit the growth”, respectively. Besides, the “Growth inhibition” value is given as ~99% in data set [1] (at ≥0.031 mg/ml concentrations) and > 99.9% in data set [3] (Bifidobacterium longum, virtually all concentrations except 0.0039 mg/ml). In addition, the “Abatement of strain growth” value in data set [1] (rifaximin 0.0039 mg/ml) is 45.7%; in data set [1] (rifaximin 0.0078 mg/ml) it was 54.9%; in data set [1] (rifaximin 0.015 mg/ml), 94.5%; in data set [1] (rifaximin 0.031 mg/ml), >99.9%; in data set [1] (rifaximin 0.063 mg/ml), 99.6%; in data set [1] (rifaximin 0.125 mg/ml), >99.9%. Further, the “Abatement of strain growth” value in data set [1] (rifaximin 0.25 mg/ml) is 98.5%; in data set [1] (rifaximin 0.5 mg/ml) it was 98.1%; in data set [3] (rifaximin 0.0039 mg/ml), 45.5%; in data set [3] (rifaximin 0.0078 mg/ml), >99.9%; in data set [3] (rifaximin 0.015 mg/ml), >99.9%; in data set [3] (rifaximin 0.031 mg/ml), >99.9%. Moreover, the “Abatement of strain growth” value is >99.9% in data set [3] (rifaximin 0.063 mg/ml); >99.9% in data set [3] (rifaximin 0.125 mg/ml); 98.7% in data set [3] (rifaximin 0.25 mg/ml); >99.9% in data set [3] (rifaximin 0.5 mg/ml); 1.5% in data set [4] (rifaximin 0.0039 mg/ml); −1.7% in data set [4] (rifaximin 0.0078 mg/ml). Besides, the “Abatement of strain growth” value in data set [4] (rifaximin 0.015 mg/ml) was −3.3%; in data set [4] (rifaximin 0.031 mg/ml), −2.1%; in data set [4] (rifaximin 0.063 mg/ml), −2.6%; in data set [4] (rifaximin 0.125 mg/ml), −3.5%; in data set [4] (rifaximin 0.25 mg/ml), −1.2%; in data set [4] (rifaximin 0.5 mg/ml), −4.7%. In addition, the “Highest concentration in DMSO with no visible precipitates and clear” value in data set [2] came to 50 mg/mL.

On to `CO[C@H]1/C=C/O[C@@]2(C)Oc3c(C)c(O)c4c(O)c(cc(O)c4c3C2=O)NC(=O)/C(C)=C\C=C\[C@H](C)[C@H](O)[C@@H](C)[C@@H](O)[C@@H](C)[C@H](OC(C)=O)[C@@H]1C` [rifamycin], for which the “Growth inhibition, conclusion in words” value in data set [1], in data set [3] (Bifidobacterium longum) and in data set [4] was “inhibits the growth” in each case. Further, the “Abatement of strain growth” value in data set [1] (setting [5]) is recorded as 79.7%; in data set [3] (setting [5]), 87.5%; in data set [4] (setting [5]), 88.9%.

These data come from patent US20260183356A1, “NOVEL COMBINATION BASED ON RIFAXIMIN AND PROBIOTIC YEASTS, COMPOSITIONS CONTAINING IT AND THEIR USE IN THERAPY” (NYUMA PHARMA SRL, priority 2022, published 2026).
